Test results reported in US10874106B2, “Method of regulating plant growth” (ROTAM AGROCHEM INTERNATIONAL COMPANY LIMITED, priority 2012, dated 2020).

Tests used:
Assay type in all cases: in vivo
[1] = system: rice plants; test: Growth of young rice plants treated with clomazone versus untreated plants
Method: (§1) Sugarcane plants are treated by the application of a commercially available concentrate formulation of clomazone (Centium 360 CS®; a suspension concentrate of microencapsulated clomazone at a concentration of 360 g/l). The concentrate formulation is dispersed in water and diluted, in a manner conventional in the art, to give an aqueous spray composition. The spray composition is applied to the sugarcane plants in an amount to apply clomazone at a rate of 120 g/hectare.
Young rice plants are treated in an analogous manner to that described in Example 1.
The growth of the rice plants is monitored and compared with the growth of rice plants of the same age and grown under the same conditions, but without treatment with clomazone.

[2] = system: potato plants; test: Growth of young potato plants treated with clomazone versus untreated plants
Method: as §1
Young potato plants are treated in an analogous manner to that described in Example 1.
The growth of the potato plants is monitored and compared with the growth of potato plants of the same age and grown under the same conditions, but without treatment with clomazone.

[3] = system: soybean plants; test: Growth of young soybean plants treated with clomazone versus untreated plants
Method: as §1
Young soybean plants are treated in an analogous manner to that described in Example 1.
The growth of the soybean plants is monitored and compared with the growth of soybean plants of the same age and grown under the same conditions, but without treatment with clomazone.

[4] = system: sugarcane plants; test: Growth of sugarcane plants treated with clomazone versus untreated plants
Method: as §1
The growth of the sugarcane plants is monitored and compared with the growth of sugarcane plants grown under the same conditions, but without treatment with clomazone.

[5] = system: oilseed rape plants; test: Growth of young oilseed rape plants treated with clomazone versus untreated plants
Method: as §1
Young oilseed rape plants are treated in an analogous manner to that described in Example 1.
The growth of the oilseed rape plants is monitored and compared with the growth of oilseed rape plants of the same age and grown under the same conditions, but without treatment with clomazone.

[6] = treated analogously to Example 1
[7] = treated analogously to Example 1, versus untreated plants
[8] = clomazone 120 g/hectare spray, versus untreated plants

CC1(C)CON(Cc2ccccc2Cl)C1=O [clomazone, 2-(2-chlorophenyl)methyl-4,4-dimethyl-3-isoxazolidinone]
growth of the treated plants in comparison to the untreated plants [1, 6]: significantly improved
average height [1, 7]: greater
average leaf blade area [1, 7]: larger
shoot growth [1, 7]: increased
growth of the treated plants in comparison to the untreated plants [2, 6]: significantly improved
average height [2, 7]: greater
average leaf blade area [2, 7]: larger
shoot growth [2, 7]: increased
growth of the treated plants in comparison to the untreated plants [3, 6]: significantly improved
average height [3, 7]: greater
average leaf blade area [3, 7]: larger
shoot growth [3, 7]: increased
growth of the treated plants in comparison to the untreated plants ([4]; Centium 360 CS diluted in water, sprayed, clomazone 120 g/hectare): significantly improved
average height [4, 8]: greater
average leaf blade area [4, 8]: larger
shoot growth [4, 8]: increased
growth of the treated plants in comparison to the untreated plants [5, 6]: significantly improved
average height [5, 7]: greater
average leaf blade area [5, 7]: larger
shoot growth [5, 7]: increased
